Laboratory results from patent US8741940B2, “Microbicidal composition” (Rohm and Haas Company, priority 2005, dated 2014).
Counter-ions that a name gives are not always drawn. Like-named read-outs stand apart in the source and are kept apart here.

Legend:
Type in all cases: cell-based
[1] = test system: Candida albicans (C. albicans—ATCC 10231); assay: Synergy test, microtiter plate high resolution MIC assay, yeast in PDB medium; design: key to SI (synergy index): SI = Qa/QA + Qb/QB; >1 antagonism, lower SI = greater synergy; Qb (Second Component B) / Qa (First Component A): unit: ppm; conditions: for MIC: Candida albicans
Description: (§1) When the sum of Qa/QA and Qb/QB is greater than one, antagonism is indicated. […] The lower the SI, the greater the synergy shown by that particular mixture. The minimum inhibitory concentration (MIC) of a microbicide is the lowest concentration tested under a specific set of conditions that prevents the growth of added microorganisms.
(§2) Synergy tests were conducted using standard microtiter plate assays with media designed for optimal growth of the test microorganism. Minimal salt medium supplemented with 0.2% glucose and 0.1% yeast extract (M9GY medium) was used for testing bacteria; Potato Dextrose Broth (PDB medium) was used for testing yeast and mold. In this method, a wide range of combinations of microbicides and other personal care raw materials was tested by conducting high resolution MIC assays in the presence of various concentrations of BBIT or MBIT. High resolution MICs were determined by adding varying amounts of microbicide to one column of a microtitre plate and doing subsequent […] dilutions using an automated liquid handling system to obtain a series of endpoints ranging from 2 ppm to 10,000 ppm active ingredient.
(§3) The bacteria were used at a concentration of about 5 ×10^6 bacteria per mL and the yeast and mold at 5×10^5 fungi per mL. These microorganisms are representative of natural contaminants in many consumer and industrial applications. […] (yeast and mold) or 30° C. (bacteria).
(§4) In each test, First Component (A) was BBIT and the Second Component (B) was the other commercial microbicide.
(§5) In each test, First Component (A) was MBIT and the Second Component (B) was the other commercial microbicide.

[2] = test system: Escherichia coli (E. coli—ATCC #8739); assay: Synergy test, microtiter plate high resolution MIC assay, bacterium in M9GY medium; design: key to SI (synergy index): SI = Qa/QA + Qb/QB; >1 antagonism, lower SI = greater synergy; Qa (First Component A) / Qb (Second Component B): unit: ppm; conditions: for MIC: Escherichia coli
Description: as §1, §2, §3, §4, §5

[3] = test system: Aspergillus niger (A. niger—ATCC 16404); assay: Synergy test, microtiter plate high resolution MIC assay, mold in PDB medium; design: key to SI (synergy index): SI = Qa/QA + Qb/QB; >1 antagonism, lower SI = greater synergy; Qb (Second Component B) / Qa (First Component A): unit: ppm; conditions: for MIC: Aspergillus niger
Description: as §1, §2, §3, §4, §5

[4] = A=MBIT, B=Caprylyl glycol, C. albicans 10231 - PDB, 24 hours
[5] = A=MBIT, B=Caprylyl glycol, E. coli 8739 - M9GY, 24 hours
[6] = A=MBIT, B=Caprylyl glycol, A. niger 16404 - PDB, 4 days
[7] = A=MBIT, B=DMDM Hydantoin (DMDMH), C. albicans 10231 - PDB, 24 hours
[8] = A=MBIT, B=DMDM Hydantoin (DMDMH), E. coli 8739 - M9GY, 24 hours
[9] = A=MBIT, B=DMDM Hydantoin (DMDMH), A. niger 16404 - PDB, 3 days
[10] = C. albicans 10231, PDB, 24 hours
[11] = ATCC10231, C. albicans 10231, PDB, 24 hours, alone where Qa = 0, otherwise in the mixture, read-out: Qb (concentration of second component producing the end point, MIC)
[12] = ATCC16404, 168 h, A. niger 16404, PDB, 7 days, alone where Qa = 0, otherwise in the mixture, read-out: Qb (concentration of second component producing the end point, MIC)
[13] = C. albicans 10231, PDB, 24 hours, alone where Qa = 0, otherwise in the mixture
[14] = A. niger 16404, PDB, 3 days, alone where Qa = 0, otherwise in the mixture

Molecule: CCCCCCC(O)CO (stereo not drawn) [Caprylyl glycol]
- Qb (Second Component B) [1, 4]: 4000
- SI (synergy index) [1, 4]: 1.00
- MIC of the component acting alone (QA / QB) ([1]; C. albicans 10231, PDB, 24 hours, 25° C.): 3000 ppm
- Qb (Second Component B) [2, 5]: 2000
- SI (synergy index) [2, 5]: 1.00
- MIC of the component acting alone (QA / QB) ([2]; E. coli 8739, M9GY, 24 hours, 30° C.): 2000 ppm
- MIC of the component acting alone (QA / QB) ([3]; A. niger 16404, PDB, 7 days, 25° C.): 3000 ppm
- Qb (Second Component B) [3, 6]: 1000
- SI (synergy index) [3, 6]: 1.00

Molecule: O=C([O-])CC(O)(CC(=O)[O-])C(=O)[O-].[Na+].[Na+].[Na+] [Sodium citrate]
- Qb (Second Component B) [1]: 10000
- Qb (concentration of second component producing the end point, MIC) [1]: 10000 ppm
- Qb (Second Component B) [2]: 20000
- Qb (concentration of second component producing the end point, MIC) [2]: 20000 ppm
- Qb (Second Component B) [3]: 10000
- Qb (concentration of second component producing the end point, MIC) [3]: 10000 ppm

Molecule: CC1(C)C(=O)N(CO)C(=O)N1CO [DMDM Hydantoin, 1,3-dimethylol-5,5-dimethylhydantoin]
- Qb (Second Component B) [1, 7]: 3000
- SI (synergy index) [1, 7]: 1.00
- SI ([1]; C. albicans 10231 - PDB, 24 hours, BBIT + DMDMH): 1.00
- Qb (Second Component B = DMDMH) ([1]; C. albicans 10231 - PDB, 24 hours, DMDMH alone (Qa 0) or in mixture with BBIT): 3000
- Qb (Second Component B) [2, 8]: 50
- SI (synergy index) [2, 8]: 1.00
- SI ([2]; E. coli 8739 - M9GY, 72 hours, BBIT + DMDMH): 1.00
- Qb (Second Component B = DMDMH) ([2]; E. coli 8739 - M9GY, 72 hours, DMDMH alone (Qa 0) or in mixture with BBIT): 200
- SI ([3]; A. niger 16404 - PDB, 7 days, BBIT + DMDMH): 1.00
- Qb (Second Component B = DMDMH) ([3]; A. niger 16404 - PDB, 7 days, DMDMH alone (Qa 0) or in mixture with BBIT): 1000
- Qb (Second Component B) [3, 9]: 1000
- SI (synergy index) [3, 9]: 1.00

Molecule: CCOC(=O)c1ccc(O)cc1 [Ethylparaben]
- SI (synergy index) [1, 10]: 1.00
- MIC ([1]; ATCC10231, C. albicans 10231, PDB, 24 hours, 25° C., read-out: MIC of the component acting alone (QA / QB)): 800 µg/mL
- MIC [1, 11]: 2000 µg/mL
- SI (synergy index) ([2]; E. coli 8739, M9GY, 24 hours): 1.00
- MIC ([2]; ATCC8739, E. coli 8739, M9GY, 24 hours, 30° C., read-out: MIC of the component acting alone (QA / QB)): 2000 µg/mL
- MIC ([2]; ATCC8739, E. coli 8739, M9GY, 24 hours, alone where Qa = 0, otherwise in the mixture, read-out: Qb (concentration of second component producing the end point, MIC)): 2000 µg/mL
- SI (synergy index) ([3]; A. niger 16404, PDB, 7 days): 1.00
- MIC ([3]; ATCC16404, 168 h, A. niger 16404, PDB, 7 days, 25° C., read-out: MIC of the component acting alone (QA / QB)): 800 µg/mL
- MIC [3, 12]: 800 µg/mL

Molecule: ClC=CC[N+]12CN3CN(CN(C3)C1)C2.[Cl-] [Quaternium-15, 1-(3-chloroallyl)-3,5,7-triaza-1-azoniaadamantane chloride]
- SI (synergy index) [1, 10]: 1.00
- SI ([1]; C. albicans 10231 - PDB, 24 hours, BBIT with Quaternium-15): 1.00
- MIC ([1]; ATCC10231, 24 h, read-out: Qb (concentration of second component producing the end point, MIC)): 500 µg/mL
- SI (synergy index) ([2]; E. coli 8739, M9GY, 24 hours): 1.00
- SI ([2]; E. coli 8739 - M9GY, 72 hours, BBIT with Quaternium-15): 1.00
- MIC ([2]; ATCC8739, 24 h, read-out: Qb (concentration of second component producing the end point, MIC)): 50 µg/mL
- SI (synergy index) ([3]; A. niger 16404, PDB, 3 days): 1.00
- SI ([3]; A. niger 16404 - PDB, 4 days, BBIT with Quaternium-15): 1.00
- MIC ([3]; ATCC16404, 72 h, read-out: Qb (concentration of second component producing the end point, MIC)): 3000 µg/mL

Molecule: CC(=O)C1C(=O)C=C(C)OC1=O (stereo not drawn) [dehydroacetic acid, sodium salt]
- SI ([1]; C. albicans 10231 - PDB, 24 hours, BBIT with SDHA): 1.00
- SI ([2]; E. coli 8739 - M9GY, 24 hours, BBIT with SDHA): 1.00
- SI ([3]; A. niger 16404 - PDB, 7 days, BBIT with SDHA): 1.00

Molecule: linoleamidopropyl PG-dimonium chloride phosphate
- SI (synergy index) [1, 10]: 1.00
- Qb (concentration of second component producing the end point, MIC) [1, 13]: 1000 ppm
- SI ([1]; C. albicans 10231 - PDB, 24 hours, BBIT with Phospholipid EFA): 1.00
- SI (synergy index) ([2]; E. coli 8739, M9GY, 48 hours): 1.00
- Qb (concentration of second component producing the end point, MIC) ([2]; E. coli 8739, M9GY, 48 hours, alone where Qa = 0, otherwise in the mixture): 500 ppm
- SI ([2]; E. coli 8739 - M9GY, 48 hours, BBIT with Phospholipid EFA): 1.00
- SI (synergy index) ([3]; A. niger 16404, PDB, 3 days): 1.00
- Qb (concentration of second component producing the end point, MIC) [3, 14]: 2000 ppm
- SI ([3]; A. niger 16404 - PDB, 4 days, BBIT with Phospholipid EFA): 1.00

Molecule: CCCOC(=O)c1ccc(O)cc1 [Propylparaben]
- SI (synergy index) [1, 10]: 1.00
- SI ([1]; C. albicans 10231 - PDB, 24 hours, BBIT with Propylparaben): 1.00
- MIC [1, 11]: 2000 µg/mL
- SI (synergy index) ([2]; E. coli 8739, M9GY, 48 hours): 1.00
- SI ([2]; E. coli 8739 - M9GY, 24 hours, BBIT with Propylparaben): 1.00
- MIC ([2]; ATCC8739, E. coli 8739, M9GY, 48 hours, alone where Qa = 0, otherwise in the mixture, read-out: Qb (concentration of second component producing the end point, MIC)): 4000 µg/mL
- SI (synergy index) ([3]; A. niger 16404, PDB, 7 days): 1.00
- SI ([3]; A. niger 16404 - PDB, 7 days, BBIT with Propylparaben): 1.00
- MIC [3, 12]: 2000 µg/mL

Molecule: Hexylene glycol
- SI (synergy index) [1, 10]: 1.00
- Qb (concentration of second component producing the end point, MIC) [1, 13]: 20000 ppm
- SI ([1]; C. albicans 10231 - PDB, 24 hours, BBIT + hexylene glycol): 1.00
- Qb (Second Component B = Hexylene glycol) ([1]; C. albicans 10231 - PDB, 24 hours, hexylene glycol alone (Qa 0) or in mixture with BBIT): 20000
- SI (synergy index) ([2]; E. coli 8739, M9GY, 24 hours): 1.00
- Qb (concentration of second component producing the end point, MIC) ([2]; E. coli 8739, M9GY, 24 hours, alone where Qa = 0, otherwise in the mixture): 20000 ppm
- SI ([2]; E. coli 8739 - M9GY, 24 hours, BBIT + hexylene glycol): 1.00
- Qb (Second Component B = Hexylene glycol) ([2]; E. coli 8739 - M9GY, 24 hours, hexylene glycol alone (Qa 0) or in mixture with BBIT): 20000
- SI (synergy index) ([3]; A. niger 16404, PDB, 3 days): 1.00
- Qb (concentration of second component producing the end point, MIC) [3, 14]: 20000 ppm
- SI ([3]; A. niger 16404 - PDB, 3 days, BBIT + hexylene glycol): 1.00
- Qb (Second Component B = Hexylene glycol) ([3]; A. niger 16404 - PDB, 3 days, hexylene glycol alone (Qa 0) or in mixture with BBIT): 20000
